Test results published in patent US20250325663A1, “MEDICAMENT FOR TREATMENT AND/OR PREVENTION OF CANCER” (TORAY INDUSTRIES, INC., priority 2021, published 2025).

Test system: colon cancer cell line HCT116
Assay: Proliferation rate of HCT116 in culture with drug
Format: cell-based, human
Conditions: cultured for 2 days
Protocol: The human-derived cancer cells used were a colon cancer cell line HCT116, a melanoma cell line A375 (used only in the tunicamycin combination test group), a lung cancer cell line A549 (used only in the tunicamycin combination test group), and a prostate cancer cell line DU145 (used only in the tunicamycin combination test group). On a 6-well plate, the human-derived cancer cells were cultured for 1 day in the presence of tunicamycin for the tunicamycin combination test group, and cultured for 2 days in the presence of the relevant drug used in combination for the fluorouracil combination test group and the irinotecan combination test group. The concentration of the drug used in combination was set to a concentration that decreased the proliferation rate of the cancer cells by about half at the completion of culture. […] As a control, a test group without a drug used in combination was established. In the control group, only DMSO (dimethyl sulfoxide), a solvent for the drug used in combination, was added to the cancer cells at a final concentration of 0.1% (v/v), and then the cancer cells were cultured for 2 days.

O=c1[nH]cc(F)c(=O)[nH]1 [fluorouracil]
concentration that decreased the proliferation rate of the cancer cells by about half at the completion of culture: 0.4 µg/mL
